Source: publication PMC3401038 (ACS Chemical Biology, 2012)

How the values were obtained:
M. tuberculosis H37Rv [1] = format: cell-based, Mycobacterium tuberculosis; settings: hypoxic shift down M. tuberculosis H37Rv, result in words
M. tuberculosis H37Rv [2] = format: cell-based, Mycobacterium tuberculosis; settings: hypoxic shift down M. tuberculosis, 5 days treatment, result in words
M. bovis BCGMtbNar = format: cell-based, Mycobacterium bovis BCG

Question: Which “effect on ATP levels” value (M. tuberculosis H37Rv [1]) does the source give for `O=[N+]([O-])c1cn2c(n1)OC[C@@H](OCc1ccc(OC(F)(F)F)cc1)C2` [PA-824] here?
Answer: reduction in ATP levels

Question: What about the “bacterial viability (CFU)” value (M. tuberculosis H37Rv [2]) of the same compound?
Answer: reduction in bacterial viability

Question: `COc1nc2ccc(Br)cc2cc1[C@@H](c1ccccc1)[C@@](O)(CCN(C)C)c1cccc2ccccc12` [TMC207] was tested. Which “effect on ATP levels” value (M. tuberculosis H37Rv [1]) did it give?
Answer: reduction in ATP levels

Question: What about the “bacterial viability (CFU)” value (M. tuberculosis H37Rv [2]) of the same compound?
Answer: reduction in bacterial viability

Question: What about the “effect on ATP pool / intracellular ATP levels” value (M. bovis BCGMtbNar) of the same compound?
Answer: significantly reduce the ATP pool

Question: Which “effect on ATP pool / intracellular ATP levels” value (M. bovis BCGMtbNar) does the source give for `Cc1ncc([N+](=O)[O-])n1CCO` [metronidazole] here?
Answer: not affected
